# Structures can show the parent of a compound that is named as a salt.
# What was measured:
# Conditions in all cases: 72 h
# [1] = test system: Caco-2; test: cell viability relative to DMSO; higher = less toxic
# [2] = test system: Calu-3; test: as above
# [3] = test system: U2OS; test: as above
# [4] = test system: Caco-2; test: relative viability EC50 (midpoint between 100% and the lowest measured viability); higher = less toxic
# [5] = test system: Calu-3; test: as above
# [6] = test system: U2OS; test: as above
# [7] = test system: Caco-2; test: drug sensitivity score (DSS) for viability; higher = more toxic; extreme values may be limits of the assay
# [8] = test system: Calu-3; test: as above
# [9] = test system: U2OS; test: as above
# [10] = test system: HepG2; test: cell viability relative to DMSO; higher = less toxic
# [11] = test system: Vero E6; test: as above
# [12] = test system: HepG2; test: relative viability EC50 (midpoint between 100% and the lowest measured viability); higher = less toxic
# [13] = test system: Vero E6; test: as above
# [14] = test system: HepG2; test: drug sensitivity score (DSS) for viability; higher = more toxic; extreme values may be limits of the assay
# [15] = test system: Vero E6; test: as above
Structure (SMILES),cell viability ([1]; 1 nM),cell viability ([1]; 10 nM),cell viability ([1]; 100 nM),cell viability ([1]; 1000 nM),cell viability ([1]; 10000 nM),cell viability ([2]; 1 nM),cell viability ([2]; 10 nM),cell viability ([2]; 100 nM),cell viability ([2]; 1000 nM),cell viability ([2]; 10000 nM),cell viability ([3]; 1 nM),cell viability ([3]; 10 nM),cell viability ([3]; 100 nM),cell viability ([3]; 1000 nM),cell viability ([3]; 10000 nM),relative viability EC50 [4],relative viability EC50 [5],relative viability EC50 [6],drug sensitivity score [7],drug sensitivity score [8],drug sensitivity score [9],cell viability ([10]; 1 nM),cell viability ([10]; 10 nM),cell viability ([10]; 100 nM),cell viability ([10]; 1000 nM),cell viability ([10]; 10000 nM),cell viability ([11]; 1 nM),cell viability ([11]; 10 nM),cell viability ([11]; 100 nM),cell viability ([11]; 1000 nM),cell viability ([11]; 10000 nM),relative viability EC50 [12],relative viability EC50 [13],drug sensitivity score [14],drug sensitivity score [15]
O=S(=O)(O)Oc1ccc(C(c2ccc(OS(=O)(=O)O)cc2)c2ccccn2)cc1 [sodium-picosulfate],88.4%,102%,96.3%,102%,106%,87.6%,95%,82.2%,100%,93.8%,102%,106%,97.1%,104%,99.1%,> 10 µM,> 10 µM,> 10 µM,0,0,0,–,–,–,–,–,–,–,–,–,–,–,–,–,–
CC(C)c1ccc(NC(=O)c2cccs2)c(-c2nc3ccccc3[nH]c2=O)c1 [ML281],102%,102%,96.5%,102%,93.5%,–,–,–,–,–,111%,105%,101%,102%,98.3%,> 10 µM,–,> 10 µM,0,–,0,103%,106%,105%,95.7%,102%,96.3%,101%,97%,95.5%,96.1%,> 10 µM,> 10 µM,0,0
CC(C)N1CCN(c2ccc(C(=O)c3c(-c4ccc(O)cc4)sc4cc(O)ccc34)cc2)CC1 [Y-134],99.5%,102%,100%,98.7%,81.4%,96%,96.2%,101%,102%,72.4%,102%,98.5%,99%,97.1%,91.8%,> 10 µM,–,> 10 µM,0.6,1,0,113%,101%,94%,104%,72.3%,101%,104%,102%,103%,82.8%,–,> 10 µM,0.9,0.3
CC[C@H]1OC(=O)C[C@@H](O)[C@H](C)[C@@H](O[C@@H]2O[C@H](C)[C@@H](O[C@H]3C[C@@](C)(O)[C@@H](O)[C@H](C)O3)[C@H](N(C)C)[C@H]2O)[C@@H](CC=O)C[C@@H](C)C(=O)/C=C/C(C)=C/[C@@H]1CO[C@@H]1O[C@H](C)[C@@H](O)[C@@H](OC)[C@H]1OC [TYLOSIN TARTRATE],101%,96.4%,109%,63%,23.4%,104%,108%,104%,91%,74.6%,102%,97.3%,96.9%,56.6%,39.9%,1.03 µM,–,0.566 µM,8.9,2.1,8.7,99%,101%,95.2%,94.8%,40.7%,102%,102%,98.7%,95.2%,18.9%,2.44 µM,2.7 µM,4,5.2
O=C(OC[C@H]1O[C@@H](OC(=O)c2cc(O)c(O)c(OC(=O)c3cc(O)c(O)c(O)c3)c2)[C@H](OC(=O)c2cc(O)c(O)c(OC(=O)c3cc(O)c(O)c(O)c3)c2)[C@@H](OC(=O)c2cc(O)c(O)c(OC(=O)c3cc(O)c(O)c(O)c3)c2)[C@@H]1OC(=O)c1cc(O)c(O)c(OC(=O)c2cc(O)c(O)c(O)c2)c1)c1cc(O)c(O)c(OC(=O)c2cc(O)c(O)c(O)c2)c1 [tannic-acid],99.6%,93.5%,90.5%,99.1%,43.5%,94.4%,99.9%,98.6%,108%,78.8%,97.7%,98.5%,93.7%,97.8%,53.1%,3.04 µM,> 10 µM,–,3.2,0.4,2.7,108%,94.6%,104%,104%,74.2%,103%,109%,102%,77.4%,48.8%,–,1.1 µM,0.8,5.7
Cc1ccc(NCCCc2ccccc2)c(N)c1 [NFKB-activation-inhibitor-II],89.4%,85%,92.6%,98.4%,79.9%,90%,93.8%,94.7%,103%,84.1%,98.9%,102%,94.9%,102%,93.2%,> 10 µM,> 10 µM,> 10 µM,0,0.1,0,110%,97.1%,103%,98.2%,100%,–,–,–,–,–,> 10 µM,–,0,–
Sc1ncnc2nc[nH]c12 [mercaptopurine],110%,103%,109%,77%,89.6%,113%,91%,94.3%,90.8%,106%,102%,101%,93.4%,71%,65.1%,> 10 µM,> 10 µM,–,3.1,0,5.6,112%,115%,107%,69.7%,18.8%,103%,104%,99.5%,103%,70.6%,1.23 µM,–,8.7,1.1
N[C@@H](C(=O)O)c1cc(O)ccc1Cl [CHPG],94.2%,91.7%,94.8%,98.7%,96%,–,–,–,–,–,97.6%,99%,98.5%,104%,103%,> 10 µM,–,> 10 µM,0,–,0,–,–,–,–,–,94.9%,93.4%,92.2%,94.6%,108%,–,> 10 µM,–,0
CCC(CC)[C@H](NC(C)=O)[C@@H]1[C@H](O)[C@@H](C(=O)O)C[C@H]1NC(=N)N [peramivir],98.8%,101%,104%,105%,102%,93.3%,98.3%,98.1%,107%,101%,103%,110%,98.9%,110%,104%,> 10 µM,> 10 µM,> 10 µM,0,0,0,110%,98.6%,102%,110%,98.9%,–,–,–,–,–,> 10 µM,–,0,–
COc1ccc(C2=N[C@@H](c3ccc(Cl)cc3)[C@@H](c3ccc(Cl)cc3)N2C(=O)N2CCNC(=O)C2)c(OC(C)C)c1 [nutlin-3],94.2%,92.1%,92.5%,97.9%,89.1%,91.6%,98.1%,89.7%,92.4%,108%,94.7%,93.6%,95.3%,98.7%,75.2%,> 10 µM,> 10 µM,> 10 µM,0,0,1.1,104%,115%,109%,89.7%,35%,106%,98.9%,94.5%,97.5%,63.7%,1.95 µM,–,5.3,2.1
CC(C)(C)NC(=O)[C@@H]1C[C@@H]2CCCC[C@@H]2CN1C[C@@H](O)[C@H](Cc1ccccc1)NC(=O)[C@H](CC(N)=O)NC(=O)c1ccc2ccccc2n1 [saquinavir],101%,87.9%,95.7%,90.4%,72.4%,96.8%,104%,93.2%,102%,109%,101%,101%,100%,103%,89.8%,–,> 10 µM,> 10 µM,1.9,0,0,91.8%,90.1%,100%,82.2%,84.3%,103%,101%,104%,85.1%,101%,> 10 µM,> 10 µM,1,0
c1cc(Nc2cc(C3CC3)n[nH]2)nc(Nc2ccc3[nH]cnc3c2)n1 [APY-29],88.9%,101%,94.7%,94.8%,72.5%,98.1%,100%,102%,37.8%,66.9%,95.2%,102%,100%,55.4%,5.4%,–,0.337 µM,1.05 µM,1.9,11.2,10.9,96.4%,94.2%,93.1%,14.2%,5.2%,101%,94.1%,93.5%,86.9%,13.8%,0.339 µM,1.97 µM,16.6,7
c1cc(-c2cnn3cc(-c4ccc(N5CCNCC5)cc4)cnc23)c2cccnc2c1,93.9%,99.7%,102%,95.1%,20.6%,109%,104%,97.4%,111%,6.2%,97.4%,93.2%,95.9%,87.2%,1.5%,2.67 µM,3.69 µM,2.11 µM,5.1,4.5,7.6,108%,101%,97.2%,102%,74.9%,92.4%,99%,92.6%,87.7%,69.3%,–,–,0.8,2.5
c1cnc(SCc2cccnc2)nc1 [tasuldine],96.5%,96.9%,101%,94.8%,101%,–,–,–,–,–,101%,96.3%,101%,94.3%,99.9%,> 10 µM,–,> 10 µM,0,–,0,105%,105%,105%,106%,97.9%,105%,98.5%,96.7%,102%,99.7%,> 10 µM,> 10 µM,0,0

# Source: the supplement of paper PMC13380429
